Experiment in all cases: NCI tumour cell line growth inhibition, 48 h
In assay [1] the test system is BT-549.
Assay [2] relates to CAKI-1.
In assay [3] the test system is CCRF-CEM.
Assay [4] has as its system HCT-116.
Assay [5] has as its system HCT-15.
Assay [6] concerns HT-29.
Assay [7] relates to Hs-578T.
In assay [8] the test system is MOLT-4.
For assay [9], the system named is NCI-H522.
For assay [10], the system named is OVCAR-3.
For assay [11], the system named is OVCAR-5.
The test system of assay [12] is OVCAR-8.
For assay [13], the system named is SF-539.
Assay [14] relates to SK-MEL-28.
Assay [15] relates to SK-OV-3.
Assay [16] relates to SNB-19.
Assay [17] concerns SNB-75.
In assay [18] the test system is SR.
In assay [19] the test system is TK-10.

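These data come from cells grown in 96-well plates and exposed to compound for 48 hours at five concentrations. GI50 = concentration required for 50% inhibition of growth.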 The source made the active and inactive calls. No stated cut-off is given here; in the data, active = GI50 up to about 1.1 µM and inactive = higher.

This note sets out measurements from ChEMBL document CHEMBL1201862, “PubChem BioAssay data set” (2004).

For the molecule `O=C1NC(=O)C(Cc2ccccc2)(c2cccnc2)N1` (centres undefined), the GI50 was > 100 µM (inactive) in assay [1]; > 100 µM (inactive) in assay [2]; > 100 µM (inactive) in assay [3]; > 100 µM (inactive) in [4]; over 100 µM in [5]; > 100 µM (inactive) in assay [6]. The GI50 in assay [7], in [8], in assay [9], in assay [10], in assay [11] and in assay [12] was > 100 µM (inactive) in each case. For the same molecule, the GI50 in [13], in assay [14], in assay [15], in [16], in assay [17] and in assay [18] was > 100 µM (inactive) throughout. Moreover, the GI50 in [19] is > 100 µM (inactive).
As to `CSc1c(C(=O)Nc2ccccc2)c(N)n(N)c(=O)c1C#N`, the GI50 in assay [1] is > 100 µM (inactive); in assay [2], > 100 µM (inactive); in assay [3], > 100 µM (inactive); in assay [4] it was > 100 µM (inactive); in assay [5], over 100 µM; in assay [6] it was > 100 µM (inactive). In addition, the GI50 was > 100 µM (inactive) in assay [7]; > 100 µM (inactive) in assay [8]; 64 µM (inactive) in [9]; > 100 µM (inactive) in assay [10]; > 100 µM (inactive) in assay [11]; > 100 µM (inactive) in assay [12]. The GI50 in assay [13], in assay [14], in [15], in assay [16], in assay [17] and in [18] was > 100 µM (inactive) each time. The GI50 in assay [19] is > 100 µM (inactive).
`CC[C@]12C=CCN3CC[C@@]4(c5cc(N=O)c(OC)cc5N(C)[C@H]4[C@@](O)(C(=O)NC(Cc4c[nH]c5ccccc45)C(=O)OC)[C@@H]1O)[C@@H]32` (some centres undefined): the GI50 in [1] was 14.9 µM (inactive); in [2], 17.9 µM (inactive); in [3] it was 3.27 µM (inactive); in assay [4], 12.9 µM (inactive); in assay [5] it was 20.3 µM; in [6], 14.1 µM (inactive). Also, the GI50 is 22.4 µM (inactive) in [7]; 1.46 µM (inactive) in assay [8]; 2.64 µM (inactive) in [9]; 14.4 µM (inactive) in assay [10]; 19.5 µM (inactive) in assay [11]; 17.5 µM (inactive) in assay [12]. In addition, the GI50 in [13] is 16.6 µM (inactive); in assay [14], 31.3 µM (inactive); in assay [15], 20.2 µM (inactive); in assay [16], 19.9 µM (inactive); in [17] it was 15 µM (inactive); in assay [18] it was 1.22 µM (inactive). The GI50 in [19] is 17.9 µM (inactive).
Regarding `Cc1c(NC(=S)Nc2ccc([N+](=O)[O-])cc2)c(=O)n(-c2ccccc2)n1C`, the GI50 in assay [1] was > 100 µM (inactive); in [2], > 100 µM (inactive); in assay [3], > 100 µM (inactive); in assay [4] it was > 100 µM (inactive); in [5] it was over 100 µM; in assay [6], > 100 µM (inactive). The GI50 in [7] was > 100 µM (inactive); in assay [8] it was 10.9 µM (inactive); in assay [9] it was > 100 µM (inactive); in assay [10], > 100 µM (inactive); in assay [11] it was > 100 µM (inactive); in assay [12], > 100 µM (inactive). Further, the GI50 in assay [13], in assay [14], in assay [15], in assay [16], in assay [17] and in assay [18] was > 100 µM (inactive) throughout. Further, the GI50 in assay [19] was > 100 µM (inactive).
For `O=C1/C(=C/c2ccc(O)cc2)Oc2ccccc21`, the GI50 was > 100 µM (inactive) in [1]; > 100 µM (inactive) in assay [2]; 32.2 µM (inactive) in assay [3]; 98.4 µM (inactive) in assay [4]; over 100 µM in assay [5]; > 100 µM (inactive) in assay [6]. The GI50 was > 100 µM (inactive) in assay [7]; 44.9 µM (inactive) in assay [8]; 23.8 µM (inactive) in assay [9]; > 100 µM (inactive) in assay [10]; > 100 µM (inactive) in [11]; > 100 µM (inactive) in assay [12]. Also, the GI50 in assay [13] was > 100 µM (inactive); in [14], > 100 µM (inactive); in [15], > 100 µM (inactive); in assay [16], > 100 µM (inactive); in [17], 60.1 µM (inactive); in [18], 47.6 µM (inactive). Also, the GI50 in [19] is > 100 µM (inactive).
As to `CN(C)CCNc1ccc2c(=O)n(CCN(C)C)c(=O)n3c4ccc(N)cc4c(=O)c1c23`, the GI50 in assay [1] was 0.407 µM (active); in assay [2], 0.115 µM (active); in assay [3], < 0.01 µM (active); in assay [4], < 0.01 µM (active); in assay [5] it was 0.0211 µM; in [6], < 0.01 µM (active). Also, the GI50 in assay [7] is 0.178 µM (active); in [8], < 0.01 µM (active); in assay [9], < 0.01 µM (active); in assay [10], 0.0995 µM (active); in assay [11], 0.0998 µM (active); in assay [12], < 0.01 µM (active). Moreover, the GI50 in assay [13] was 0.0395 µM (active); in assay [14], 0.24 µM (active); in [15], 0.261 µM (active); in [16], 0.0261 µM (active); in assay [17], 0.0782 µM (active); in assay [18], < 0.0194 µM (active). Besides, the GI50 in [19] was 0.318 µM (active).
As for `C=C1CCOC2(C(O)C(C)(O)CO)NC(=O)C1(O)NC2=O` (centres undefined), the GI50 in assay [1] is > 100 µM (inactive); in assay [2], > 100 µM (inactive); in [3] it was > 100 µM (inactive); in assay [4], > 100 µM (inactive); in [5], over 100 µM; in assay [6], > 100 µM (inactive). Further, the GI50 in assay [7], in assay [8], in [9], in [10], in [11] and in assay [12] was > 100 µM (inactive) each time. Also, the GI50 in assay [13], in assay [14], in assay [15], in assay [16], in [17] and in assay [18] was > 100 µM (inactive) throughout. In addition, the GI50 in [19] is > 100 µM (inactive).
As to `N#CC12C(=O)NC(=O)C1(C#N)C1C=CC2CC1` (centres undefined), the GI50 was > 100 µM (inactive) in assay [1]; > 100 µM (inactive) in assay [2]; > 100 µM (inactive) in [3]; > 100 µM (inactive) in assay [4]; over 100 µM in assay [5]; > 100 µM (inactive) in assay [6]. The GI50 in assay [7], in assay [8], in assay [9], in [10], in assay [11] and in assay [12] was > 100 µM (inactive) throughout. Moreover, the GI50 in assay [13], in [14], in assay [15], in [16], in assay [17] and in [18] was > 100 µM (inactive) each time. For the same molecule, the GI50 in assay [19] was > 100 µM (inactive).
Consider `COC(=O)[C@]1(NC(=O)c2ccccc2)C[C@H]1C=O`, for which the GI50 in assay [1] is 98.2 µM (inactive); in [2], > 100 µM (inactive); in assay [3], 21.6 µM (inactive); in assay [4], > 100 µM (inactive); in assay [5] it was over 90.6 µM; in assay [6], > 100 µM (inactive). Further, the GI50 was > 55.5 µM (inactive) in assay [7]; > 64.7 µM (inactive) in [8]; > 61.1 µM (inactive) in [9]; > 100 µM (inactive) in assay [10]; > 100 µM (inactive) in assay [11]; > 100 µM (inactive) in assay [12]. The GI50 is > 100 µM (inactive) in assay [13]; > 100 µM (inactive) in [14]; 93.8 µM (inactive) in [15]; > 100 µM (inactive) in [16]; > 42.9 µM (inactive) in assay [17]; 28.2 µM (inactive) in assay [18]. In assay [19], the GI50 is > 100 µM (inactive).
On to `COC(=O)Cc1ccc2c(cnn2-c2ccccc2)c1OC`, for which the GI50 in assay [1] is > 10 µM (inactive); in assay [2] it was > 10 µM (inactive); in assay [3] it was > 10 µM (inactive); in assay [4] it was > 10 µM (inactive); in assay [5], over 10 µM; in assay [6] it was > 10 µM (inactive). In addition, the GI50 in assay [7], in assay [8], in assay [9], in [10], in assay [11] and in assay [12] was > 10 µM (inactive) throughout. The GI50 in assay [13], in assay [14], in assay [15], in assay [16], in assay [17] and in [18] was > 10 µM (inactive) each time. Also, the GI50 in assay [19] is > 10 µM (inactive).
As to `CCCCCCC(C)c1ccc2c(c1)C(=O)c1nc3ccncc3c(=O)n1-2` (centres undefined), the GI50 was 4.21 µM (inactive) in [1]; 2.54 µM (inactive) in assay [2]; 0.836 µM (active) in assay [3]; 2.5 µM (inactive) in assay [4]; 1.3 µM in assay [5]; 2.1 µM (inactive) in assay [6]. Also, the GI50 in assay [7] is 9.62 µM (inactive); in [8] it was 0.661 µM (active); in assay [9], 1.29 µM (inactive); in assay [10], 1.45 µM (inactive); in [11], 5.43 µM (inactive); in [12], 6.87 µM (inactive). For the same molecule, the GI50 in assay [13] was 4.44 µM (inactive); in assay [14], 14.5 µM (inactive); in assay [15], 5.9 µM (inactive); in [16] it was 4.81 µM (inactive); in assay [17], 8.59 µM (inactive); in assay [18], 0.225 µM (active). Moreover, the GI50 in [19] is 4.86 µM (inactive).
